Reference: US20240173333A1, “Treating Alagille Syndrome (ALGS)” (priority 2022, published 2024)
Entries after “also recorded” stand apart in the source; their conditions may differ. Marks after values point to notes of the source that are not given here.

Experiments:
Format in all cases: in vivo, human
[1] = system: patients with Alagille syndrome (ALGS); assay: Pooled ASSERT and ASSERT-EXT: hepatic parameters (ALT, AST, GGT, total bilirubin)
Method: (§1) In the completed 24-week ASSERT study, patients with ALGS with history of significant pruritus and elevated serum BAs were randomized 2:1 to once-daily odevixibat 120 μg/kg or placebo, respectively. Patients who completed ASSERT could enter ASSERT-EXT, an ongoing, 72-week open-label extension study in which all patients receive odevixibat 120 μg/kg/day. This pooled analysis included all odevixibat-treated patients from ASSERT and/or ASSERT-EXT and spans from patients' first dose of odevixibat to a data cut-off of Sep. 9, 2022. Assessments over up to 36 weeks of treatment included change in observer-reported scratching scores and sleep parameters, as well as levels of serum BAs, autotaxin (a proposed meditator of pruritus), and 7 alpha-hydroxy-4-cholesten-3-one (C4; a marker of bile acid synthesis). Safety evaluations included assessment of alanine aminotransferase (ALT), total bilirubin, and treatment-emergent adverse events (TEAEs).
Patients who completed ASSERT could enter ASSERT-EXT, an ongoing 72-week extension study in which all patients received odevixibat 120 μg/kg/day. This pooled analysis spans from patients' first dose of odevixibat in ASSERT and/or ASSERT-EXT to a data cutoff at the end of the 72 week period; data from patients who received placebo in ASSERT are also presented for comparison. In both studies, laboratory assessments included measurement of serum alanine transaminase (ALT), Aspartate transaminase (AST), Gamma-glutamyltransferase (GGT), and total bilirubin levels. Caregivers rated patient pruritus using the PRUCISION™ instrument.

[2] = system: patients with Alagille syndrome (ALGS); assay: ASSERT: fat-soluble vitamin levels, INR and related TEAEs
Method: Vitamins A, D, E, and international normalized ratio (INR; surrogate for vitamin K) were measured throughout the study. Vitamins A, D, and E were measured at screening and randomization, week 12, and week 24. International normalized ratio (INR; surrogate for vitamin K) was measured at all visits. The following measures were determined: (i) percentage of patients with FSV insufficiency at baseline and week 24, and (ii) shifts from baseline to high or low post-baseline FSV values relative to normal ranges. Treatment-emergent adverse events (TEAEs) of FSV deficiency, TEAEs resulting from new or worsening FSV deficiency refractory to clinically recommended vitamin supplementation, and TEAEs represented any possible sequelae of FSV deficiency were evaluated.

[3] = system: patients with Alagille syndrome (ALGS); assay: Pooled ASSERT and ASSERT-EXT: sleep parameters
Method: as §1

SMILES: CCCCC1(CCCC)CN(c2ccccc2)c2cc(SC)c(OCC(=O)N[C@@H](C(=O)N[C@@H](CC)C(=O)O)c3ccc(O)cc3)cc2S(=O)(=O)N1 [odevixibat, 1,1-dioxo-3,3-dibutyl-5-phenyl-7-methylthio-8-(N-{(R)-α-[N-((S)-1-carboxypropyl)carbamoyl]-4-hydroxybenzyl}carbamoylmethoxy)-2,3,4,5-tetrahydro-1,2,5-benzothiadiazepine]
- ALT, Mean (SD), Change to week 48 ([1]; n=9): 64 (102) U/L
- AST, Mean (SD), Change to week 48 ([1]; n=9): 37 (72) U/L
- GGT, Mean (SD), Change to week 48 ([1]; n=9): 2 (238) U/L
- Total bilirubin, Mean (SD), Change to week 48 ([1]; n=9): −1 (16) μmol/L
- ALT, Mean (SD), Change to week 36 ([1]; n=15): 79 (91) U/L
- AST, Mean (SD), Change to week 36 ([1]; n=16): 67 (66) U/L
- GGT, Mean (SD), Change to week 36 ([1]; n=16): 101 (149) U/L
- Total bilirubin, Mean (SD), Change to week 36 ([1]; n=16): 10 (37) μmol/L
- ALT, Mean (SD), Change to week 24 ([1]; n=37): 57 (81) U/L
- AST, Mean (SD), Change to week 24 ([1]; n=37): 43 (89) U/L
- GGT, Mean (SD), Change to week 24 ([1]; n=37): 107 (170) U/L
- Total bilirubin, Mean (SD), Change to week 24 ([1]; n=37): −1 (19) μmol/L
- AST, Mean (SD), Change to week 12 ([1]; n=42): 36 (67) U/L
- ALT, Mean (SD), Change to week 12 ([1]; n=43): 63 (82) U/L
- GGT, Mean (SD), Change to week 12 ([1]; n=44): 97 (178) U/L
- Total bilirubin, Mean (SD), Change to week 12 ([1]; n=44): −3 (32) μmol/L
- ALT, Mean (SD), Change to week 4 ([1]; n=46): 55 (71) U/L
- AST, Mean (SD), Change to week 4 ([1]; n=46): 40 (67) U/L
- GGT, Mean (SD), Change to week 4 ([1]; n=46): 79 (191) U/L
- Total bilirubin, Mean (SD), Change to week 4 ([1]; n=46): −4 (19) μmol/L
- ALT, Mean (SD), Baseline ([1]; n=52, before odevixibat): 173 (79) U/L
- AST, Mean (SD), Baseline ([1]; n=52, before odevixibat): 164 (76) U/L
- GGT, Mean (SD), Baseline ([1]; n=52, before odevixibat): 441 (329) U/L
- Total bilirubin, Mean (SD), Baseline ([1]; n=52, before odevixibat): 56 (49) μmol/L
- concurrent total bilirubin levels in the 4 patients with AST/ALT >3×BL ([1]; pooled): < 2 times the baseline level
- patients with on-treatment elevations in ALT and total bilirubin that met Hy's law criteria ([1]; pooled): No patients
- patients with potentially clinically significant elevations in AST and/or ALT to >3 times the baseline level ([1]; pooled, n=52): 4 patients
- shifts to low levels of vitamin E in patients with normal or high baseline levels ([2]; 4/29): 14%
- shifts to low vitamin D levels in patients with normal or high baseline levels ([2]; 8/16): 50%
- shifts from low or normal INR at baseline to high INR (low vitamin K) ([2]; 12/30): 40%
- TEAE related to FSV levels: decreased vitamin A ([2]; 24 weeks): 1 n
- TEAE related to FSV levels: decreased vitamin E ([2]; 24 weeks): 1 n
- TEAE related to FSV levels: increased INR ([2]; 24 weeks): 1 n
- incidence of INR increased (possible sequela of FSV deficiency) ([2]; 24 weeks): 3%
- incidence of haematoma (possible sequela of FSV deficiency) ([2]; 24 weeks): 9%
- patients shifted to high INR based on the normal range ([2]; 24 weeks): 12 patients
- patients who shifted to high post-baseline INR and had TEAEs of potential sequelae of vitamin K deficiency ([2]; 24 weeks): 2 n
- patients with clinically meaningful INR shifts (INR >1.2) ([2]; 24 weeks): 6 patients
- shifts to low vitamin D levels ([2]; 24 weeks): 8 patients
- shifts to low vitamin E levels ([2]; 24 weeks): 4 patients
- incidence of possible sequelae of fat-soluble vitamin deficiency ([2]; 24 weeks, n=35): 14%
- patients with TEAEs related to FSV levels (any FSV deficiency-related TEAE) ([2]; 24 weeks, n=35): 9%
- fat-soluble vitamin deficiency TEAE refractory to clinically recommended vitamin supplementation ([2]; 24 weeks, vitamin D deficiency): 1 patients
- changes from baseline in mean vitamin (FSV) levels or INR ([2]; baseline to last assessment): No clinically meaningful changes; also recorded: no clinically relevant changes
- Vitamin A, shifts to low ([2]; baseline to lowest post-baseline value): 0/34
- patients shifted to low levels of vitamin A ([2]; during the study): No patients
- Any FSV deficiency-related TEAE ([2]; n=35): 3 (9)^a n (%)
- Any potential sequelae events ([2]; n=35): 5 (14) n (%)
- FSV deficiency-related TEAE: INR increased ([2]; n=35): 1 (3) n (%)
- FSV deficiency-related TEAE: Vitamin A decreased ([2]; n=35): 1 (3) n (%)
- FSV deficiency-related TEAE: Vitamin E decreased ([2]; n=35): 1 (3) n (%)
- Potential sequelae: Coagulopathy ([2]; n=35): 1 (3) n (%)
- Potential sequelae: Contusion ([2]; n=35): 1 (3) n (%)
- Potential sequelae: Epistaxis ([2]; n=35): 0 n (%)
- Potential sequelae: Hematemesis ([2]; n=35): 1 (3) n (%)
- Potential sequelae: Hematoma ([2]; n=35): 3 (9) n (%)
- Potential sequelae: INR increased ([2]; n=35): 1 (3) n (%)
- FSV deficiency-related TEAE: Vitamin D deficiency ([2]; n=35, refractory to supplementation): 1 (3)^b n (%)
- patients with FSV deficiency TEAE refractory to clinically recommended vitamin supplementation ([2]; of 35 patients): 3%
- Days seeing blood due to scratching, Mean (SD) % of Days ([3]; Baseline, n=50): 35% (34%)
- Days sleeping with caregiver, Mean (SD) % of Days ([3]; Baseline, n=50): 43% (45%)
- Days with help falling asleep, Mean (SD) % of Days ([3]; Baseline, n=50): 57% (45%)
- Days with soothing, Mean (SD) % of Days ([3]; Baseline, n=50): 64% (43%)
- Days seeing blood due to scratching, Mean (SD) % of Days ([3]; Weeks 33-36, n=21): 5.7% (14%)
- Days sleeping with caregiver, Mean (SD) % of Days ([3]; Weeks 33-36, n=21): 10% (26%)
- Days with help falling asleep, Mean (SD) % of Days ([3]; Weeks 33-36, n=21): 10% (18%)
- Days with soothing, Mean (SD) % of Days ([3]; Weeks 33-36, n=21): 12% (25%)
- Days seeing blood due to scratching, Mean (95% CI) Change From Baseline to Week 33-36 ([3]; n=21): −30% (−42%, −17%)***
- Days sleeping with caregiver, Mean (95% CI) Change From Baseline to Week 33-36 ([3]; n=21): −44% (−64%, −24%)***
- Days with help falling asleep, Mean (95% CI) Change From Baseline to Week 33-36 ([3]; n=21): −60% (−78%, −43%)***
- Days with soothing, Mean (95% CI) Change From Baseline to Week 33-36 ([3]; n=21): −59% (−77%, −40%)***
